In test [1] the test system is Pseudomonas syringae pv. actinidiae. The test is described as follows: Antimicrobial activity against Pseudomonas syringae pv. actinidiae assessed as reduction in bacterial growth measured at 100 ug/ml after 48 hrs by double dilution method. It counts as functional. The following applies: dose 100.0 µg/ml.
The subject of a further test is Staphylococcus aureus. The test is described as follows: Antimicrobial activity against Staphylococcus aureus assessed as reduction in bacterial growth at 100 ug/ml measured after 48 hrs by double dilution method. It counts as functional, organism-based. The following applies: dose 100.0 µg/ml.
A further test has as its system Bacillus cereus. Kind of test: Antimicrobial activity against Bacillus cereus assessed as reduction in bacterial growth at 100 ug/ml measured after 48 hrs by double dilution method. Format: functional, organism-based. The settings on record: dose 100.0 µg/ml.
Test [2] has as its system Pseudomonas sp. The test is described as follows: Antimicrobial activity against Pseudomonas sp. assessed as reduction in bacterial growth at 100 ug/ml measured after 48 hrs by double dilution method. It counts as functional, organism-based. The settings on record: dose 100.0 µg/ml.
A further test has as its system HepG2. The test is described as follows: Cytotoxicity against human HepG2 cells assessed as reduction in cell viability measured after 48 hrs by CCK8 assay. Format: functional, cell-based. The following applies: HepG2, 48 h. Background: Formazan colour is commonly taken as a measure of viable cells.
A further test has as its system Escherichia coli. The test is described as follows: Antimicrobial activity against Escherichia coli assessed as reduction in bacterial growth at 100 ug/ml measured after 48 hrs by double dilution method. Format: functional, organism-based. The settings on record: dose 100.0 µg/ml.
The test system of another test is Bacillus subtilis. The test is described as follows: Antimicrobial activity against Bacillus subtilis assessed as reduction in bacterial growth at 100 ug/ml measured after 48 hrs by double dilution method. It counts as functional. The following applies: for Activity: dose 100.0 µg/ml.
The next test concerns HeLa. The test is described as follows: Cytotoxicity against human HeLa cells assessed as reduction in cell viability measured after 48 hrs by CCK8 assay. It counts as functional, cell-based.
A further test deals with Ralstonia solanacearum. Kind of test: Antimicrobial activity against Ralstonia solanacearum assessed as reduction in bacterial growth at 100 ug/ml measured after 48 hrs by double dilution method. It counts as functional, organism-based. The following applies: dose 100.0 µg/ml.
The next test concerns Fusarium oxysporum. The test is described as follows: Antifungal activity against Fusarium oxysporum assessed as inhibition of fungal growth measured after 72 hrs by double dilution method. It counts as functional.
In a further test the test system is Phytophthora capsici. The test is described as follows: Antifungal activity against Phytophthora capsici assessed as inhibition of fungal growth measured after 72 hrs by double dilution method. Format: functional, organism-based.
In a further test the test system is Alternaria alternata. Kind of test: Antifungal activity against Alternaria alternata assessed as inhibition of fungal growth measured after 72 hrs by double dilution method. Format: functional, organism-based.
In test [3] the test system is Pseudomonas sp. The test is described as follows: Antimicrobial activity against Pseudomonas sp. assessed as reduction in bacterial growth measured after 48 hrs by double dilution method. It counts as functional.

Values after ≈ are worked out from the molar mass of the structure shown. Active and inactive are the calls of the source.

As for `C[C@@H](O)[C@]12SS[C@@]3(C(=O)N1C)[C@H](O)C1([C@]45c6ccccc6N[C@H]4N4C(=O)[C@@]6([C@@H](C)O)SS[C@@]4(C(=O)N6C)[C@@H]5O)c4ccccc4N[C@H]1N3C2=O` (stereo not given in full), the outcome (in test [1]; in the test with Staphylococcus aureus; in the test with Bacillus cereus; in the test with Pseudomonas sp. [2]; in the test with Escherichia coli; with Bacillus subtilis) was inactive. The outcome in the test with Ralstonia solanacearum was inactive. Also, the IC50 was determined as 0.37 µM in the test with HepG2 and 0.12 µM with HeLa.
Regarding `C[C@@H](O)[C@@H]1OC(=O)[C@@H]2[C@H]3c4c[nH]c5cccc(c45)C[C@H]3C(C)(C)N2C1=O`, the outcome (in test [1]; in the test on Staphylococcus aureus; with Bacillus cereus; with Phytophthora capsici; with Pseudomonas sp. [2]; with Escherichia coli) was inactive. The outcome in the test on Alternaria alternata, with Bacillus subtilis and with Ralstonia solanacearum was inactive. Moreover, in the test with Fusarium oxysporum, the MIC came out at 50 µg/mL (≈ 141 µM). Also, the IC50 in the test on HepG2 and in the test on HeLa was greater than 20 µM each time.
On to `CS[C@@]1(Cc2c[nH]c3ccccc23)NC(=O)[C@H]([C@@H](C)O)NC1=O`, for which the outcome (in [1]; in the test with Staphylococcus aureus; in the test on Bacillus cereus; with Pseudomonas sp. [2]; in the test on Escherichia coli; in the test on Bacillus subtilis) was inactive. For the same compound, in the test on Ralstonia solanacearum, the outcome was inactive. Besides, the IC50 in the test with HepG2 and in the test on HeLa was greater than 20 µM each time.
For `C[C@@H](O)[C@]12SS[C@@]3(C(=O)N1C)[C@H](O)[C@@]1(c4c[nH]c5ccccc45)c4ccccc4N[C@H]1N3C2=O`, the result (in test [1]; in the test with Staphylococcus aureus; with Bacillus cereus; with Pseudomonas sp. [2]; in the test on Escherichia coli; in the test on Bacillus subtilis) was inactive. Besides, the result in the test with Ralstonia solanacearum was inactive. For the same compound, the figures for the IC50 with HepG2 and in the test with HeLa were 0.6 µM and 0.42 µM, respectively.
Take `CS[C@@H]1C(=O)N2[C@@H]3Nc4ccccc4[C@]3(c3c[nH]c4ccccc34)[C@@H](O)[C@@]2(SC)C(=O)N1C`: the result (in test [1]; in the test with Staphylococcus aureus; in the test with Bacillus cereus; in the test with Pseudomonas sp. [2]; in the test with Escherichia coli; in the test with Bacillus subtilis) was inactive. The outcome in the test on Ralstonia solanacearum was inactive. Further, the IC50 in the test with HepG2 and with HeLa was greater than 20 µM throughout.
Regarding `O=C(O)c1ccc(O)c2c1Cc1cccn1-2`, the result (in test [1]; with Staphylococcus aureus; in the test on Bacillus cereus; with Fusarium oxysporum; in the test on Phytophthora capsici; in the test on Pseudomonas sp. [2]) was inactive. The result in the test on Escherichia coli, in the test on Alternaria alternata, in the test on Bacillus subtilis and with Ralstonia solanacearum was inactive. Further, the IC50 in the test on HepG2 and with HeLa was greater than 20 µM throughout.
For the compound `CN1C(=O)C(=O)N2C(=C[C@@]3(c4c[nH]c5ccccc45)c4ccccc4N[C@@H]23)C1=O`, the outcome (in [1]; in the test on Staphylococcus aureus; in the test with Bacillus cereus; with Pseudomonas sp. [2]; in the test with Escherichia coli; in the test on Bacillus subtilis) was inactive. In addition, in the test with Ralstonia solanacearum, the outcome was inactive. The IC50 with HepG2 and in the test with HeLa was greater than 20 µM each time.
For `CS[C@@]1(Cc2c[nH]c3ccccc23)NC(=O)[C@@](SC)([C@@H](C)O)NC1=O`, the outcome (in test [1]; in the test with Staphylococcus aureus; in the test on Bacillus cereus; in the test with Pseudomonas sp. [2]; with Escherichia coli; with Bacillus subtilis) was inactive. Further, the result with Ralstonia solanacearum was inactive. The IC50 with HepG2 and in the test with HeLa was greater than 20 µM throughout.
Turning to `C[C@@H](O)[C@@H]1NC(=O)[C@H](Cc2c[nH]c3ccccc23)NC1=O`, the outcome (in test [1]; in the test on Staphylococcus aureus; in the test with Bacillus cereus; in the test with Fusarium oxysporum; with Phytophthora capsici; with Pseudomonas sp. [2]) was inactive. In addition, the result with Escherichia coli, in the test with Alternaria alternata, in the test with Bacillus subtilis and with Ralstonia solanacearum was inactive. The half-maximal inhibitory concentration (IC50) with HepG2 and in the test with HeLa was greater than 20 µM each time. The MIC in the test with Pseudomonas sp. [3] came out at 50 µg/mL (≈ 174 µM).
In the case of `C[C@H](O)[C@H]1NC(=O)[C@@H](Cc2c[nH]c3ccccc23)NC1=O`, the result in the test with Fusarium oxysporum, with Phytophthora capsici and in the test on Alternaria alternata was inactive. In addition, the MIC with Bacillus subtilis (dose 100 µg/ml) came out at 25 µg/mL (≈ 87 µM).

As a reminder, the IC50 is the concentration at which inhibition is half-maximal. In general, MIC refers to the smallest concentration in the dilution series that meets the test's criterion for growth inhibition.

The record behind these values is ChEMBL document CHEMBL5053499, “Indole Alkaloids from a Soil-Derived Clonostachys rosea” (J Nat Prod, 2021).
